The values that follow come from patent US8642540B2 (Zealand Pharma A/S, priority 2008, dated 2014).

Where two headings read alike, the source gives them in different places. Non-standard residues stand in square brackets, D forms with d. Residues, ends and D or L forms follow the SMILES beside them.

Assay [1] relates to primary rat adipocyte cultures. It is filed as cell-based. The conditions noted are these: for Stimulation of lipolysis EC50 / lipolysis potency relative to OXM: primary rat adipocyte cultures; for Stimulation of lipolysis EC50: 60 min at 37° C., glycerol formed. How it is done:
Adipocytes were isolated from epididymal fat dissected from normal young adult Sprague-Dawley rats. The fat lumps were minced, incubated and shaken (220 rpm) with collagenase (1 mg/ml) in Krebs-Ringer buffer containing 4% BSA (KRB-BSA) for 60 minutes at 37° C. The suspension was filtered through a nylon filter (160 μm pore size) and the filtrate centrifuged at 200×g for 3 min. The subjacent medium beneath the upper floating layer of adipocytes was removed with a Pasteur-pipette. The adipocytes were washed 3 times in KRB-BSA buffer by re-suspension and centrifugation. The adipocytes were re-suspended in KRB-BSA, mixed, incubated in and shaken with test compounds in 96-deep well plates (50,000 cells/well) in a total volume of 1 ml at 37° C. for 60 min. The plates were placed on ice for at least 10 min after incubation followed by centrifugation at 200×g for 3 min. 300 μl of the buffer beneath the adipocyte layer were collected in a 96-deep well plate. This process was repeated two more times and the 3 extracts collected from each culture pooled together.

The next assay concerns the target T1, human GLP-1-R (Homo sapiens, UniProt P43220).
T1 construct: expressed in transfected cells
In words: GLP-1 receptor efficacy assay (cAMP in HEK293 cells). It counts as cell-based. The conditions noted are these: HEK293 cells expressing human GLP-1-R, 15 min at 37° C. The procedure: (§1) The 5′-end primers additionally encoded a near Kozak consensus sequence to ensure efficient translation.
(§2) 48 hr after transfection cells were seeded for limited dilution cloning and selected with 1 mg/ml G418 in the culture medium.
(§3) On the day of analysis, growth medium was removed and the cells washed once with 200 μl Tyrode buffer. Cells were incubated in 100 μl Tyrode buffer containing increasing concentrations of test peptides, 100 μM IBMX, and 6 mM glucose for 15 min at 37° C. The reaction was stopped by addition of 25 μl 0.5 M HCl and incubated on ice for 60 min. The cAMP content was estimated using the FlashPlate® cAMP kit from Perkin-Elmer.

The target in another assay is T2, human Glucagon-R (Homo sapiens, UniProt P47871).
T2 construct: expressed in transfected cells
In words: Glucagon receptor efficacy assay (cAMP in HEK293 cells). It is filed as cell-based. The settings on record: HEK293 cells expressing human Glucagon-R, 15 min at 37° C., read-out: GLUR EC50. The procedure:
as §1, §2, §3

The subject of the next assay is diet induced obese mice. In words: 28 day treatment of diet induced obese (DIO) mice, body weight gain. It is filed as in vivo, mouse. The settings on record: C57Bl/6 male mice on high fat diet, 500 nmol/kg b.i.d. s.c., 28 days. How it is done:
Effects of 28 Day Treatment of Diet Induced Obese (DIO) Mice with ZP2495 (SEQ ID NO: 5) on Body Weight Gain Four weeks before drug treatments, C57Bl/6 male mice (7 weeks) (N=10-12 animals in each group) were put on high fat diet (HFD) and their day-night cycle reversed with lights On/Off at 2000/0800 hour. Experimental animals were conditioned to treatment by daily injections (s.c.) of 0.1 ml vehicle and acclimatized to handling by weighing them twice a week one week before start of drug administrations. The day before start of experiment, mice were stratified into groups with similar body weight (BW) and the next day groups of stratified mice were treated (b.i.d.; s.c.) with ZP2495 (SEQ ID NO: 5) (500 nmol/kg) or vehicle. A non-obese control group maintained on regular chow was treated with vehicle in the same treatment regime as the DIO groups. Body weights were recorded daily and used to administer the body weight-corrected doses of peptide throughout the study. Animals were fasted overnight before sacrifice. […] Body weight gains throughout the treatment period were calculated for each animal by subtracting its weight at the initiation of treatment.
The effects of treatment on body weight gain were assessed by 2-way ANOVA with repeated measures and Bonferoni post-hoc analyses were using with GraphPad Prism version 4. […]

T1 sequence (P43220 24-463): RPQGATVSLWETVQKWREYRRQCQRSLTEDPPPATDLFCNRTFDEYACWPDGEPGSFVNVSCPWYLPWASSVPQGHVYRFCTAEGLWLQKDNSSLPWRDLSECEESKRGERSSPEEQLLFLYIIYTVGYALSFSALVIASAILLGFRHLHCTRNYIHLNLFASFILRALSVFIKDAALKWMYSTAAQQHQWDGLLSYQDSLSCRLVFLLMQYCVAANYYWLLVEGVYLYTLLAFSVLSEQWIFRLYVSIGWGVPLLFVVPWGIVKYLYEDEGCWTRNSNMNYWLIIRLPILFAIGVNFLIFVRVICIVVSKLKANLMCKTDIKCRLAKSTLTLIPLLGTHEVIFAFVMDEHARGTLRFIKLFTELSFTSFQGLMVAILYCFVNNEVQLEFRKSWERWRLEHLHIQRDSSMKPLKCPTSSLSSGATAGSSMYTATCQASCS
T2 sequence (P47871 26-477): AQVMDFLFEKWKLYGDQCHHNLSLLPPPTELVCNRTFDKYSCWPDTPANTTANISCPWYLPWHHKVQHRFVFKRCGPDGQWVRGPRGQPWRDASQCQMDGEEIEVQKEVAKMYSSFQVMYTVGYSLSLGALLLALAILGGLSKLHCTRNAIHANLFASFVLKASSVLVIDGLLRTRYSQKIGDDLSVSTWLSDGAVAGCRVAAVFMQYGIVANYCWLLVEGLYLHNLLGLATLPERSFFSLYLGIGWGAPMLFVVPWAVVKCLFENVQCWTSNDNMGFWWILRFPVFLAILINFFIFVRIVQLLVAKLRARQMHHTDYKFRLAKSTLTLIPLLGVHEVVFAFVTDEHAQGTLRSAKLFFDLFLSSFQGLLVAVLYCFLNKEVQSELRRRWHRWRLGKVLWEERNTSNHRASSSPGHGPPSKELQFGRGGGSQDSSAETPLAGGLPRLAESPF

`CC(C)C[C@H](NC(=O)[C@H](Cc1c[nH]c2ccccc12)NC(=O)[C@H](C)NC(=O)[C@@H](NC(=O)[C@H](Cc1ccccc1)NC(=O)[C@H](CC(=O)O)NC(=O)[C@H](CC(=O)O)NC(=O)[C@H](C)NC(=O)[C@H](CCCNC(=N)N)NC(=O)[C@H](C)NC(=O)[C@H](CCCNC(=N)N)NC(=O)[C@H](CC(=O)O)NC(=O)[C@H](CC(C)C)NC(=O)[C@H](Cc1ccc(O)cc1)NC(=O)[C@H](CCCCN)NC(=O)[C@H](CO)NC(=O)[C@H](Cc1ccc(O)cc1)NC(=O)[C@H](CC(=O)O)NC(=O)[C@H](CO)NC(=O)[C@@H](NC(=O)[C@H](Cc1ccccc1)NC(=O)[C@@H](NC(=O)CNC(=O)[C@H](CCC(N)=O)NC(=O)[C@@H](CO)NC(=O)[C@@H](N)Cc1c[nH]cn1)[C@@H](C)O)[C@@H](C)O)C(C)C)C(=O)N[C@@H](CCCCN)C(=O)N[C@@H](CO)C(=O)N[C@H](C(N)=O)[C@@H](C)O` [ZP2654] (H-H[dS]QGTFTSDYSKYLDRARADDFVAWLKST-NH2): the EC50 was determined as 326 nM in assay [1], 0.8 nM on human GLP-1-R and 0.5 nM on human Glucagon-R.

On to Exendin-4 [reference compound], for which the entries for the “Stimulation of lipolysis EC50” value in assay [1] and in assay [1] (listed as exendin-4) were “No effect” and “no effect”, respectively.

“H-HSQGTFTSDYSKYLDRARADDFVAWLERA-NH2 [ZP2650]”: the EC50 in assay [1] was determined as 15 nM; on human GLP-1-R, 0.8 nM.

For “H-HSQGTFTSDYSKYLDRARADDFVAWLKEA-NH2 [ZP2635]”, the EC50 was 93 nM in assay [1], 0.2 nM at human GLP-1-R and 0.2 nM at human Glucagon-R.

Consider “H-HSQGTFTSDYSKYLDRARADDFVAWLKSA-NH2 [ZP2634]”, for which the EC50 was 127 nM in assay [1], 0.2 nM on human GLP-1-R and 0.5 nM at human Glucagon-R. Besides, the “lipolysis potency relative to OXM” value in assay [1] was “equipotent with OXM”.

In the case of “H-HSQGTFTSDYSKYLDRARADDFVAWLKST-NH2 [ZP2495]”, in the assay with diet induced obese mice (2-way ANOVA, p<0.05), the “body weight gain versus vehicle group” value is reported as “statistically significantly less than observed in the vehicle group”. For the same molecule, in the assay with diet induced obese mice (compared with chow-fed controls), the body weight gain result is “decreased body weight gain to a level similar to that observed with chow feeding”. In addition, in assay [1], the EC50 was 137 nM and the “lipolysis potency relative to OXM” value was “equipotent with OXM”.

Turning to “H-HSQGTFTSDYSKYLDRARADDFVEWLKST-NH2 [ZP2649]”, the EC50 in assay [1] worked out at 57 nM; at human GLP-1-R, 0.1 nM.

On to “H-HSQGTFTSDYSKYLDRARAEDFVAWLKST-NH2 [ZP2637]”, for which the EC50 stood at 42 nM in assay [1], 0.1 nM on human GLP-1-R and 0.2 nM at human Glucagon-R.

For the molecule “H-HSQGTFTSDYSKYLDRARAHDFVAWLKST-NH2 [ZP2648]”, the values for the EC50 (in assay [1]; on human GLP-1-R; on human Glucagon-R) were 26 nM, 0.1 nM and 0.2 nM, respectively.

By EC50 is commonly meant the concentration that produces a half-maximal response.
